Laboratory results: BigSolDB 2.1

O=C1OC(=O)[C@H]2[C@@H]1[C@@H]1C=C[C@H]2O1 showed a solubility (mole fraction) (in 1,4-dioxane, 288.15 K) of 0.0238, a solubility (mole fraction) (in 1,4-dioxane, 293.15 K) of 0.0288 and a solubility (mole fraction) (in 1,4-dioxane, 298.15 K) of 0.0342. It also gave a solubility (mole fraction) (in 1,4-dioxane, 303.15 K) of 0.0414, a solubility (mole fraction) (in 1,4-dioxane, 308.15 K) of 0.052 and a solubility (mole fraction) (in 1,4-dioxane, 313.15 K) of 0.0647. The solubility (mole fraction) (in 1,4-dioxane, 318.15 K) was 0.0857, the solubility (mole fraction) (in 1,4-dioxane, 323.15 K) was 0.134 and the solubility (mole fraction) (in DMF, 278.15 K) was 0.106. The solubility (mole fraction) (in DMF, 283.15 K) was 0.117, the solubility (mole fraction) (in DMF, 288.15 K) was 0.126 and the solubility (mole fraction) (in DMF, 293.15 K) was 0.138. It also gave a solubility (mole fraction) (in DMF, 298.15 K) of 0.15, a solubility (mole fraction) (in DMF, 303.15 K) of 0.164 and a solubility (mole fraction) (in DMF, 308.15 K) of 0.181. The solubility (mole fraction) (in DMF, 313.15 K) was 0.192, the solubility (mole fraction) (in DMF, 318.15 K) was 0.218 and the solubility (mole fraction) (in DMF, 323.15 K) was 0.238. For the same molecule, the solubility (mole fraction) (in NMP, 278.15 K) was 0.133, the solubility (mole fraction) (in NMP, 283.15 K) was 0.144 and the solubility (mole fraction) (in NMP, 288.15 K) was 0.155. For the same molecule, the solubility (mole fraction) (in NMP, 293.15 K) was 0.17, the solubility (mole fraction) (in NMP, 298.15 K) was 0.184 and the solubility (mole fraction) (in NMP, 303.15 K) was 0.199. It also gave a solubility (mole fraction) (in NMP, 308.15 K) of 0.211, a solubility (mole fraction) (in NMP, 313.15 K) of 0.235 and a solubility (mole fraction) (in NMP, 318.15 K) of 0.256. The solubility (mole fraction) (in NMP, 323.15 K) was 0.277, the solubility (mole fraction) (in acetone, 278.15 K) was 0.038 and the solubility (mole fraction) (in acetone, 283.15 K) was 0.0434. It also gave a solubility (mole fraction) (in acetone, 288.15 K) of 0.0483, a solubility (mole fraction) (in acetone, 293.15 K) of 0.0556 and a solubility (mole fraction) (in acetone, 298.15 K) of 0.0629. It also gave a solubility (mole fraction) (in acetone, 303.15 K) of 0.0717, a solubility (mole fraction) (in acetone, 308.15 K) of 0.0818 and a solubility (mole fraction) (in acetone, 313.15 K) of 0.0932. It also gave a solubility (mole fraction) (in acetone, 318.15 K) of 0.107, a solubility (mole fraction) (in acetone, 323.15 K) of 0.125 and a solubility (mole fraction) (in acetonitrile, 278.15 K) of 0.0308. The solubility (mole fraction) (in acetonitrile, 283.15 K) was 0.0353, the solubility (mole fraction) (in acetonitrile, 288.15 K) was 0.0393 and the solubility (mole fraction) (in acetonitrile, 293.15 K) was 0.0453. For the same molecule, the solubility (mole fraction) (in acetonitrile, 298.15 K) was 0.0508, the solubility (mole fraction) (in acetonitrile, 303.15 K) was 0.0576 and the solubility (mole fraction) (in acetonitrile, 308.15 K) was 0.0667. It also gave a solubility (mole fraction) (in acetonitrile, 313.15 K) of 0.078, a solubility (mole fraction) (in acetonitrile, 318.15 K) of 0.0887 and a solubility (mole fraction) (in acetonitrile, 323.15 K) of 0.109. The solubility (mole fraction) (in ethyl acetate, 278.15 K) was 0.0157, the solubility (mole fraction) (in ethyl acetate, 283.15 K) was 0.0179 and the solubility (mole fraction) (in ethyl acetate, 288.15 K) was 0.0207. It also gave a solubility (mole fraction) (in ethyl acetate, 293.15 K) of 0.0234, a solubility (mole fraction) (in ethyl acetate, 298.15 K) of 0.0275 and a solubility (mole fraction) (in ethyl acetate, 303.15 K) of 0.031. For the same molecule, the solubility (mole fraction) (in ethyl acetate, 308.15 K) was 0.0363, the solubility (mole fraction) (in ethyl acetate, 313.15 K) was 0.0414 and the solubility (mole fraction) (in ethyl acetate, 318.15 K) was 0.0482. The solubility (mole fraction) (in ethyl acetate, 323.15 K) was 0.0569, the solubility (mole fraction) (in isobutyl acetate, 278.15 K) was 0.00929 and the solubility (mole fraction) (in isobutyl acetate, 283.15 K) was 0.011. For the same molecule, the solubility (mole fraction) (in isobutyl acetate, 288.15 K) was 0.0122, the solubility (mole fraction) (in isobutyl acetate, 293.15 K) was 0.0143 and the solubility (mole fraction) (in isobutyl acetate, 298.15 K) was 0.0165. It also gave a solubility (mole fraction) (in isobutyl acetate, 303.15 K) of 0.0189, a solubility (mole fraction) (in isobutyl acetate, 308.15 K) of 0.022 and a solubility (mole fraction) (in isobutyl acetate, 313.15 K) of 0.0248. For the same molecule, the solubility (mole fraction) (in isobutyl acetate, 318.15 K) was 0.0283, the solubility (mole fraction) (in isobutyl acetate, 323.15 K) was 0.0324 and the solubility (mole fraction) (in isopentyl acetate, 278.15 K) was 0.00727. The solubility (mole fraction) (in isopentyl acetate, 283.15 K) was 0.00841, the solubility (mole fraction) (in isopentyl acetate, 288.15 K) was 0.00971 and the solubility (mole fraction) (in isopentyl acetate, 293.15 K) was 0.011. It also gave a solubility (mole fraction) (in isopentyl acetate, 298.15 K) of 0.0129, a solubility (mole fraction) (in isopentyl acetate, 303.15 K) of 0.0147 and a solubility (mole fraction) (in isopentyl acetate, 308.15 K) of 0.0168. For the same molecule, the solubility (mole fraction) (in isopentyl acetate, 313.15 K) was 0.0196, the solubility (mole fraction) (in isopentyl acetate, 318.15 K) was 0.0214 and the solubility (mole fraction) (in isopentyl acetate, 323.15 K) was 0.0251. It also gave a solubility (mole fraction) (in isopropyl acetate, 278.15 K) of 0.0101, a solubility (mole fraction) (in isopropyl acetate, 283.15 K) of 0.0126 and a solubility (mole fraction) (in isopropyl acetate, 288.15 K) of 0.014. It also gave a solubility (mole fraction) (in isopropyl acetate, 293.15 K) of 0.0164, a solubility (mole fraction) (in isopropyl acetate, 298.15 K) of 0.0191 and a solubility (mole fraction) (in isopropyl acetate, 303.15 K) of 0.022. The solubility (mole fraction) (in isopropyl acetate, 308.15 K) was 0.0255, the solubility (mole fraction) (in isopropyl acetate, 313.15 K) was 0.0295 and the solubility (mole fraction) (in isopropyl acetate, 318.15 K) was 0.0335. For the same molecule, the solubility (mole fraction) (in isopropyl acetate, 323.15 K) was 0.0395, the solubility (mole fraction) (in methyl acetate, 278.15 K) was 0.0236 and the solubility (mole fraction) (in methyl acetate, 283.15 K) was 0.0281. It also gave a solubility (mole fraction) (in methyl acetate, 288.15 K) of 0.031, a solubility (mole fraction) (in methyl acetate, 293.15 K) of 0.0368 and a solubility (mole fraction) (in methyl acetate, 298.15 K) of 0.042. For the same molecule, the solubility (mole fraction) (in methyl acetate, 303.15 K) was 0.0496, the solubility (mole fraction) (in methyl acetate, 308.15 K) was 0.0582 and the solubility (mole fraction) (in methyl acetate, 313.15 K) was 0.0687. The solubility (mole fraction) (in methyl acetate, 318.15 K) was 0.0806, the solubility (mole fraction) (in methyl acetate, 323.15 K) was 0.0965 and the solubility (mole fraction) (in n-butyl acetate, 278.15 K) was 0.00989. It also gave a solubility (mole fraction) (in n-butyl acetate, 283.15 K) of 0.0115, a solubility (mole fraction) (in n-butyl acetate, 288.15 K) of 0.0129 and a solubility (mole fraction) (in n-butyl acetate, 293.15 K) of 0.0149. The solubility (mole fraction) (in n-butyl acetate, 298.15 K) was 0.0172, the solubility (mole fraction) (in n-butyl acetate, 303.15 K) was 0.0196 and the solubility (mole fraction) (in n-butyl acetate, 308.15 K) was 0.0226. The solubility (mole fraction) (in n-butyl acetate, 313.15 K) was 0.0258, the solubility (mole fraction) (in n-butyl acetate, 318.15 K) was 0.0285 and the solubility (mole fraction) (in n-butyl acetate, 323.15 K) was 0.0339. It also gave a solubility (mole fraction) (in n-pentyl acetate, 278.15 K) of 0.00784, a solubility (mole fraction) (in n-pentyl acetate, 283.15 K) of 0.00916 and a solubility (mole fraction) (in n-pentyl acetate, 288.15 K) of 0.0105. It also gave a solubility (mole fraction) (in n-pentyl acetate, 293.15 K) of 0.012, a solubility (mole fraction) (in n-pentyl acetate, 298.15 K) of 0.0137 and a solubility (mole fraction) (in n-pentyl acetate, 303.15 K) of 0.0158. It also gave a solubility (mole fraction) (in n-pentyl acetate, 308.15 K) of 0.018, a solubility (mole fraction) (in n-pentyl acetate, 313.15 K) of 0.0205 and a solubility (mole fraction) (in n-pentyl acetate, 318.15 K) of 0.0231. It also gave a solubility (mole fraction) (in n-pentyl acetate, 323.15 K) of 0.0264, a solubility (mole fraction) (in n-propyl acetate, 278.15 K) of 0.012 and a solubility (mole fraction) (in n-propyl acetate, 283.15 K) of 0.0135. It also gave a solubility (mole fraction) (in n-propyl acetate, 288.15 K) of 0.0159, a solubility (mole fraction) (in n-propyl acetate, 293.15 K) of 0.0179 and a solubility (mole fraction) (in n-propyl acetate, 298.15 K) of 0.021. It also gave a solubility (mole fraction) (in n-propyl acetate, 303.15 K) of 0.0244, a solubility (mole fraction) (in n-propyl acetate, 308.15 K) of 0.0277 and a solubility (mole fraction) (in n-propyl acetate, 313.15 K) of 0.033. For the same molecule, the solubility (mole fraction) (in n-propyl acetate, 318.15 K) was 0.0388 and the solubility (mole fraction) (in n-propyl acetate, 323.15 K) was 0.0435.
